Measured values as given in patent publication US10918734B2 (Immunomedics, Inc., priority 2017, dated 2021).
Like-named read-outs stand apart in the source and are kept apart here.

Experiments:
Calu-3 tumors = experiment: Calu-3 xenograft therapy; format: in vivo, nude mice; details: 0.4 mg/kg SN-38; tumor-free until day 147
Capan-1 tumors = experiment: Capan-1 xenograft therapy; format: in vivo, nude mice; details: day 140; 0.2 mg/kg SN-38 twice weekly x 4 weeks
[1] = system: human SCLC tumors (DMS 53); format: in vivo, C.B.-17 SCID mice
Description: Female C.B.-17 SCID mice were injected s.c. with a tumor suspension made from of DMS 53 stock tumors (20% w/v) plus cells harvested from tissue culture (5×10^6 cells per mouse) mixed 1:1 with matrigel. […] All were administered twice weekly for 4 weeks. Two groups received only chemotherapy of either cisplatinum (5 mg/kg i.p.) or carboplatin (50 mg/kg i.p.) weekly for 4 weeks. […] A final untreated control group of mice received saline (100 μL i.p. twice weekly×4 wks). Tumors were measured and mice weighed twice weekly.

[2] = Tolerability in Cynomolgus monkeys; format: in vivo, Cynomolgus monkeys (Macaca fascicularis)
[3] = system: diverse metastatic cancers; experiment: Phase I/II clinical trial of IMMU-132 (Example 8): response and TTP; format: in vivo, human
[4] = Tolerability in Swiss-Webster mice; details: normal mice; 1,500 mg/kg of the conjugate
[5] = human, in vivo
C39 tumors = experiment: MDA-MB-231 Trop-2 transfectant C39 tumor therapy; format: in vivo, mice; details: for median survival time (MST): IMMU-132 0.5 mg twice wkly × 4, irinotecan 40 mg/kg q2dx5
Description: (§1) Rad51 and DNA-breaks (g-H2A.X) were determined by Western blot. […] Tumors were measured and mice weighed twice weekly. Study survival endpoint was tumor progression to >1.0 cm^3.

MDA-MB-231 tumors = experiment: MDA-MB-231 parental tumor therapy; format: in vivo, mice
Description: as §1

[6] = plasma esterase; cited from earlier work
Rad51 [7] = experiment: Rad51 expression in tumors taken from treated mice; format: in vivo; details: parental, C13 and C39 tumors
C13 tumors = experiment: MDA-MB-231 Trop-2 transfectant C13 tumor therapy; format: in vivo, mice; details: for median survival time (MST): IMMU-132 0.5 mg twice wkly × 4, irinotecan 40 mg/kg q2dx5
Description: as §1

[8] = system: SK-MES-1 squamous cell lung carcinoma; experiment: SK-MES-1 antitumor effect (FIG. 18); format: in vivo
[9] = system: SK-MES-1 human squamous cell lung tumors; experiment: SK-MES-1 xenograft therapy; set-up: species or system nude mice; details: mouse, in vivo
HCC1806 TNBC = HCC1806 TNBC antitumor effect (FIG. 17); format: in vivo
advanced GI cancers = experiment: Phase I/II trial of IMMU-132 in advanced GI cancers: best response by RECIST, TTP; format: in vivo, human
Description: Patients with metastatic cancers were enrolled after failing standard therapy, starting at a dose of 8.0 mg/kg given on days 1 and 8 of a 3-week cycle.
Sixty patients with advanced GI cancers were enrolled in a Phase I/II trial.

[10] = human, in vivo; remark: listed apart in the source
Rad51 [11] = experiment: Rad51 levels by Western blot in cells exposed to IMMU-132; format: cell-based, human; details: for increase in Rad51 level: MDA-MB-231, 24-h exposure
Description: as §1

p53 = p53 expression in tumor cells; format: cell-based, human; details: BxPC-3 and Calu-3
Text: (§2) SN-38 is known to activate several signaling pathways in cells, leading to apoptosis (e.g., Cusack et al., 2001, Cancer Res 61:3535-40; Liu et al. 2009, Cancer Lett 274:47-53; Lagadec et al., 2008, Br J Cancer 98:335-44). Our initial studies examined the expression of 2 proteins involved in early signaling events (p21^Waf1/Cip1 and p53) and 1 late apoptotic event [cleavage of poly-ADP-ribose polymerase (PARP)] in vitro (not shown).
(§3) In addition, p53 expression in cells exposed to the ADC was higher in both cell lines compared to SN-38 (not shown). […] In terms of later apoptotic events, cleavage of PARP was evident in both cell lines when incubated with either SN-38 or the conjugate (not shown). […] The higher degree of cleavage with free SN-38 over the ADC was consistent with the cytotoxicity findings.

p21^Waf1/Cip1 = experiment: p21Waf1/Cip1 expression in tumor cells; format: cell-based, human
Text: as §2

[12] = system: BxPC3 human pancreatic carcinoma; details: FIG. 2
[13] = mouse, in vivo
[14] = system: poly-ADP-ribose polymerase (PARP); experiment: Cleavage of PARP in tumor cells; format: cell-based, human; details: BxPC-3 and Calu-3
Text: as §2, §3

[15] = day 73, IMMU-132 250 μg (alone twice weekly, in combination weekly)

## hRS7-CL2-SN-38
Calu-3 tumors
  time within which all mice were cured: ≤ 28 days
Capan-1 tumors
  mice tumor-free at end of study: 40%

## N.N.[Cl][Pt][Cl] [cisplatinum, reference compound]
[1]; [15]
  mean tumor volume: 0.758±0.240 cm^3

## hRS7-SN-38
[2]; cynomolgus monkey, in vivo
  cumulative human equivalent dose tolerated by monkeys: 22 mg/m^2
[2]; only minor, reversible toxicities
  dose tolerated by monkeys: 24 mg SN-38 equivalents/kg
[3]; person with CRC, starting dose 8 mg/kg
  reduction in target lesions at first CT assessment: 37%
[4]
  cumulative dose over 1 week without acute toxicity: 24 mg/kg SN-38
[5]
  SN-38 released daily: 50%
  time within which the conjugate cleared from the serum: ≤ 3 days

## N.N.O=C([O-])C1(C(=O)[O-])CCC1.[Pt+2] [carboplatin, reference compound]
[1]; day 41 (therapy day 14)
  mean tumor volume: 0.602±0.224 cm^3

## CCc1c2c(nc3ccc(OC(=O)N4CCC(N5CCCCC5)CC4)cc13)-c1cc3c(c(=O)n1C2)COC(=O)[C@]3(O)CC [irinotecan, reference compound]
C39 tumors
  median survival time (MST): 28 days
MDA-MB-231 tumors; 40 mg/kg q2dx5
  median survival time: 26.5 days
[6]
  conversion rate to SN-38: greater than 50%
Rad51 [7]
  Rad51 in tumors from treated mice: up-regulation of Rad51 within 24 h
C13 tumors; 40 mg/kg q2dx5
  median survival time: 35 days
C13 tumors
  median survival time (MST): 35 days
[8]
  antitumor effects: significant antitumor effects
[9]
  antitumor effect vs specific hRS7-SN-38 conjugate: provided the same antitumor effects

## hA20-CL2A-SN-38 [reference compound]
Capan-1 tumors
  mice tumor-free at end of study: 20%
[9]
  antitumor effect vs specific hRS7-SN-38 conjugate: provided the same antitumor effects

## IMMU-132
C39 tumors; FIG. 21
  effect on tumor growth: effective to inhibit tumor growth
C39 tumors
  median survival time (MST): > 70 days
MDA-MB-231 tumors; 0.5 mg twice wkly × 4, endpoint tumor >1.0 cm^3
  median survival time (MST): 21 days
MDA-MB-231 tumors; FIG. 19
  effect on tumor growth: no effect on tumor growth
MDA-MB-231 tumors; FIG. 22
  effect on survival: no antitumor effect on survival
MDA-MB-231 tumors; past studies, FIG. 16
  efficacy: neither IMMU-132 nor irinotecan demonstrated any efficacy
[1]; 500, 250 or 100 μg i.p. twice weekly for 4 weeks
  antitumor effect compared to saline control: significant antitumor effect
[1]; [15]
  mean tumor volume: 0.745±0.162 cm^3
HCC1806 TNBC
  antitumor effects: significant antitumor effects
Advanced GI cancers; 3 with CT assessment
  gastric cancer patients with SD: 3
Advanced GI cancers; 8 with CT assessment
  esophageal cancer patients with PR: 1
  esophageal cancer patients with SD: 4
Advanced GI cancers; 15 treated (5 at 8, 7 at 10, 3 at 12 mg/kg)
  pancreatic cancer patients with SD as best response: 7
Advanced GI cancers; 29 CRC patients
  CRC patients with SD as best response by RECIST: 14
Advanced GI cancers; 29 CRC patients (9 at 10 mg/kg, 20 at 8 mg/kg)
  CRC patients with PR as best response by RECIST: 1
Advanced GI cancers; CRC
  extent of the PR: ~65%
Rad51 [7]
  Rad51 in tumors from treated mice: up-regulation of Rad51 within 24 h
[10]
  Abdominal pain, Grade 3: 0
  Abdominal pain, Grade 4: 0
  Anemia, Grade 3: 2 (4%)
  Anemia, Grade 4: 0
  Deep vein thrombosis, Grade 3: 1 (2%)
  Deep vein thrombosis, Grade 4: 0
  Diarrhea, Grade 3: 4 (9%)
  Diarrhea, Grade 4: 0
  Dysgeusia, Grade 3: 0
  Dysgeusia, Grade 4: 0
  Fatigue, Grade 3: 4 (9%)
  Fatigue, Grade 4: 0
  Hypokalemia, Grade 3: 1 (2%)
  Hypokalemia, Grade 4: 0
  Nausea, Grade 3: 0
  Nausea, Grade 4: 0
  Neutropenia, Grade 3: 11 (24%)
  Neutropenia, Grade 4: 2 (4%)
  Pyrexia, Grade 3: 0
  Pyrexia, Grade 4: 0
  Vomiting, Grade 3: 1 (2%)
  Vomiting, Grade 4: 0
  WBC Decrease, Grade 3: 1 (2%)
  WBC Decrease, Grade 4: 0
  neutropenia ≥G3: 28%
C13 tumors; FIG. 20
  effect on tumor growth: effective to inhibit tumor growth
C13 tumors
  median survival time (MST): > 70 days
[8]
  antitumor effects: significant antitumor effects
[3]; 8 of 13
  CT-assessable PDC patients with SD: 62%
[3]; 48 patients (excluding PDC)
  patients with disease response: 79%
Rad51 [11]; C13 and C39, 24 h
  Rad51 up-regulation above untreated background: ~2.5 fold
Rad51 [11]; 25 nM SN-38-equivalents
  increase in Rad51 level: greater than 2 fold
Rad51 [11]; 100 nM
  increase in Rad51 level: 4 fold
Rad51 [11]; MDA-MB-231 cells, 24 h
  increase in Rad51 levels: > 2 fold
Rad51 [11]; SK-MES-1, HCC1806
  change in Rad51: Neither SK-MES-1 nor HCC1806 cells demonstrated any increases in Rad51
Rad51 [11]; SK-MES-1 or HCC1806
  effect on Rad51 levels: no effect

## hRS7 IgG
p53
  exposure time at which upregulation of p53 was evident: 48 h
p21^Waf1/Cip1
  effect on p21Waf1/Cip1 expression: no appreciable effect

## hRS7-CL2A-SN-38
p53
  exposure time at which upregulation of p53 was evident: ≤ 24 h
p21^Waf1/Cip1; Calu-3
  increase in p21Waf1/Cip1 expression over free SN-38: more than 2 fold
[2]; 2×0.96 mg SN-38/kg, transient decreases
  blood count data: values did not fall below normal ranges
[2]; cynomolgus monkey, in vivo
  human equivalent dose of MTD (2 doses): 0.3-0.6 mg/kg SN-38
[12]
  therapeutic efficacy vs control treatments: better therapeutic efficacy than control treatments
[13]
  AST level: > 298 U/L
  histology at termination: no histologic evidence of tissue damage
[13]; 8 mg/kg
  glucose levels (slightly elevated): 273 to 320 mg/dL
  mice with slightly elevated glucose levels: 5 of 7
Capan-1 tumors
  mice tumor-free at end of study: 50%
[14]
  cleavage of PARP: evident

## CCc1c2c(nc3ccc(O)cc13)-c1cc3c(c(=O)n1C2)COC(=O)[C@]3(O)CC [SN-38, reference compound]
p53
  exposure time at which upregulation of p53 was evident: 48 h
[14]
  cleavage of PARP: evident
